Experimental data from patent publication US20210186982A1, “METHODS AND COMPOSITIONS FOR TREATING MELANOMA” (UNIVERSITE NICE SOPHIA ANTIPOLIS, priority 2017, published 2021).
“Also recorded” adds a separate entry of the source.

Legend:
melanoma cells = test: Cytotoxic effect, rounding of cells; assay type: cell-based, human
501Mel = test: MTS conversion assay, melanoma cell proliferation; assay type: cell-based, human
Protocol: (§1) Cell proliferation was measured by a MTS conversion assay using the CellTiter 96® Aqueous Non-Radioactive Cell Proliferation kit (Promega, Madison Wis.) according to the manufacturer instructions. Cells were seeded in 96-well plates (5×10^4 cells/well) and treated with different reagents for the indicated times and incubated at 37° C. with MTS reagent. The optical density of each sample at 490 nm was determined with a Multiskan FC plate reader (Thermo Fisher Scientific, Waltham, Mass. USA).

A375 [1] = test: MTS conversion assay, melanoma cell proliferation; assay type: cell-based, human
Protocol: as §1

1205Iu = test: MTS conversion assay, melanoma cell proliferation; assay type: cell-based, human
Protocol: as §1

4511u and 4511uR cells = test: Colony formation assay; assay type: cell-based, human
Protocol: (§2) Alternatively, cell growth was assessed by crystal violet staining on cells seeded in 24-well plates for the indicated time. After treatment, cells were fixed in PFA 3% during 20 min, washed with PBS 3 times and stained with crystal violet 0.4% in ethanol 20% for 30 min.

Me1501 and A375 cells = test: Colony formation; assay type: cell-based, human; conditions: compared to untreated cells
Protocol: as §2

USP14 = molecular target: T1, USP14 (Homo sapiens, UniProt P54578); test: DUB trap assay (HA-Ub-VS probe, anti-USP14 immunoblot); assay type: cell-based
T1 construct: endogenous in cells; host or cells: A375 (also 1205Lu, 501Mel, SKMel28, 451Lu) melanoma cells; cell lysates
T1 sequence (P54578 whole entry): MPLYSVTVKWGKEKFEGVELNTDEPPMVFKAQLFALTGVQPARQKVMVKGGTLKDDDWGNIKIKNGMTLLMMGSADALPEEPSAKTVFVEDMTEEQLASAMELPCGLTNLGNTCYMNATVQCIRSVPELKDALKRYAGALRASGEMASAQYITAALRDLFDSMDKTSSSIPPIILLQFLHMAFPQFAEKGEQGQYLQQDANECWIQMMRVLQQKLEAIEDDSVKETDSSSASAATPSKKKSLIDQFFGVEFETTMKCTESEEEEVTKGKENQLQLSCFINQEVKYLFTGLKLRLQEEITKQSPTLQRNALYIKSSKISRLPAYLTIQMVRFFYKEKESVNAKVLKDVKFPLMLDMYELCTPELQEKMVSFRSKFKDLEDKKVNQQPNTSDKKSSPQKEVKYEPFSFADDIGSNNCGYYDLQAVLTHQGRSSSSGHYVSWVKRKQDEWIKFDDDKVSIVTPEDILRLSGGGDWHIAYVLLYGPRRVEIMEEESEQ
Protocol: Cells were harvested, washed with PBS and pellets were dried then freezed (−80° C.) and subsequently lysed in ice-cold buffer containing 50 mM Tris (pH 7.4), 5 mM MgCl2, 250 mM sucrose, 1 mM DTT, 2 mM ATP, and 1 mM PMSF and mild sonication. Lysates were cleared by centrifugation, and 20 μg of protein extracts were incubated for 25 min at 37° C. with 2 μM HA-Ub-VS (Boston Biochem, Cambridge, Mass.). After boiling in reducing sample buffer, labelled cell lysates were subjected to immunoblot analysis as described above using the indicated antibodies.

16 melanoma cell lines = test: MTS proliferation assay, collection of melanoma cell lines; assay type: cell-based; conditions: Homo sapiens, range over 16 melanoma cell lines, read-out: IC50 of b-AP15 for 16 melanoma cell lines
Protocol: as §1

Pt#1 patient cells = test: MTS conversion assay, patient melanoma cell proliferation; assay type: cell-based; conditions: Homo sapiens; Patient cells Pt#1; MET; BRAF*; resistance none; 48 h MTS; read-out: b-AP15 IC50
Protocol: as §1

12051u and A375 cells = test: Immunoblot analysis of proliferation and apoptosis proteins; assay type: cell-based, human
Protocol: Melanoma cells were harvested as described before 6. Cells were lysed at 4° C. in RIPA buffer (Millipore) supplemented with Pierce™ Protease and Phosphatase Inhibitor Mini Tablets, and briefly sonicated. Cell lysates were cleared at 16,000 xg for 15 min at 4° C. Whole cell lysates were subjected to SDS-PAGE and immunoblot analysis as previously described 6.

A375 [2] = test: Real-time imaging growth curve (IncuCyte Zoom); assay type: cell-based, human; conditions: 2 μM; 3 days; compared with bortezomib and VLX1570
Protocol: FIG. 8. USP14 inhibition induces growth inhibition and cytotoxicity on melanoma cell lines. (A) Growth curve of A375 treated with 2 μM b-AP15, 2 μM VLX1570 or […] bortezomib (BTZ). Data were acquired in triplicate during 3 days using an IncuCyte Zoom. (B) and (C) Cytotoxic effects of USP14 inhibition on melanoma cells. A375 and Me1501 cells were treated with the indicated doses of b-AP15 or VLX1570, and stained with cytotox green reagent (100 nM). Cytotoxicity was monitored in triplicate for 72 h with an IncuCyte imaging system.

ER stress response genes = test: qRT-PCR analysis of ER stress response genes; assay type: cell-based, human; conditions: 2 μM b-AP15, 6 h and 24 h; 12051u cells
Protocol: Total RNA was extracted from cell samples using Nucleospin RNAII kit (Macherey-Nagel) and following the manufacturer's instructions. Recovered RNA samples were quantified using NanoDrop spectrophotometer ND1000 (Thermo Fisher Scientific). Reverse transcription was performed on 1 μg of total RNA in a volume of 20 μL using High capacity cDNA Reverse Transcription kit (Applied Biosystems) according to the manufacturer's instructions. Quantitative PCR was performed on 20 ng cDNA samples, in sealed 96-well microtiter plates using the Platinum® SYBR Green qPCR Supermix-UDG w/ROX (Life Technologies) with the StepOnePlus System (Applied Biosystems). Relative mRNA levels were determined using the 2ΔΔCT method and ACTB and PPIA as housekeeping genes. Values are the mean of duplicates and are representative of two independent experiments.

A375 cells = test: Cell cycle / sub-G1 analysis by flow cytometry (PI); assay type: cell-based, human; conditions: 24 h
Protocol: (§3) Cell cycle profiles and sub-G1 analysis were performed by flow cytometry analysis of propidium iodide (PI)-stained cells. Briefly, following permeabilization in icecold ethanol 70%, cells were stained with PI 40 μg/ml in PBS supplemented with RNAse A 100 μg/ml before analysis using a BD FACSCanto cytometer.

12051u cells = test: as above; assay type: cell-based, human; conditions: 24 h
Protocol: as §3

[3] = 24 h, increasing doses 0.01 to 10 μM

Cc1cc(C(=O)CN2CCCC2)c(C)n1-c1ccc(F)cc1 [b-AP15]
time to rounding of melanoma cells (melanoma cells): ≤ 12 h
cell proliferation of 501me1 cells (MTS) (501Mel; [3]): impaired cell proliferation in a dose-dependent manner
IC50 (501Mel; Homo sapiens, 501Mel, MET, BRAFV600E, resistance none, 48 h MTS, read-out: b-AP15 IC50): 500 nM
cell proliferation of A375 cells (MTS) (A375 [1]; 24 h, increasing doses up to 10 μM): drastically decreased cell proliferation; also recorded: impaired cell proliferation in a dose-dependent manner
IC50 (A375 [1]; Homo sapiens, A-375, A375, MET, BRAFV600E/CDKN2A*, resistance none, 48 h MTS, read-out: b-AP15 IC50): 600 nM
cell proliferation of 1205Lu cells (MTS) (1205Iu; [3]): impaired cell proliferation in a dose-dependent manner
IC50 (1205Iu; Homo sapiens, 1205Iu, MET, BRAFV600E/PTEN*, resistance none, 48 h MTS, read-out: b-AP15 IC50): 400 nM
melanoma colony formation (4511u and 4511uR cells): suppressed melanoma colony formation
ability to form colonies, compound treatment (Me1501 and A375 cells): no longer capable of forming colonies
USP14 activity in 12051u, 501Mel, SKMe128 and 4511u cells (USP14; 2 μM): efficiently blocked the activity of USP14
USP14 activity (USP14-Ub-HA) in A375 cells (USP14; A375 melanoma cells): efficiently blocked the activity of USP14 in a dose-dependent manner
IC50 (16 melanoma cell lines): 400 to 2000 nM
IC50 (Pt#1 patient cells): 3400 nM
levels of p53 and of the cell cycle inhibitor p21 (12051u and A375 cells): increased
levels of phosphorylated Rb proteins (12051u and A375 cells): reducing
effect on cell proliferation, real-time imaging (A375 [2]): rapid
ER stress response (CHOP, BIP/GRP78, GADD34, ATF4, spliced XBP1) (ER stress response genes): triggered a potent ER stress response
sub-G1 cell population with reduced DNA content (A375 cells): 11%
sub-G1 cell population with reduced DNA content (12051u cells): 19%
